Test results as given in PubChem BioAssay (NCI).
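Values below derive from 48-hour exposures of cells grown in 96-well plates, with endpoints linearly interpolated between the two concentrations bracketing the appropriate inhibition level. GI50 is the concentration that inhibits growth by half. The concentration for full growth arrest is given as TGI.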

Experiments:
Test in all cases: NCI-60 cell line screen, 48 h
786-0 renal = tested on: 786-0 renal
A498 renal = tested on: A498 renal
A549 NSCLC = tested on: A549 NSCLC
ACHN renal = tested on: ACHN renal
BT-549 breast = tested on: BT-549 breast
CAKI-1 renal = tested on: CAKI-1 renal
CCRF-CEM leukemia = tested on: CCRF-CEM leukemia
COLO 205 colon = tested on: COLO 205 colon
DU-145 prostate = tested on: DU-145 prostate
EKVX NSCLC = tested on: EKVX NSCLC
HCC-2998 colon = tested on: HCC-2998 colon
HCT-116 colon = tested on: HCT-116 colon
HCT-15 colon = tested on: HCT-15 colon
HL-60(TB) leukemia = tested on: HL-60(TB) leukemia
HOP-62 NSCLC = tested on: HOP-62 NSCLC
HS 578T breast = tested on: HS 578T breast
HT29 colon = tested on: HT29 colon
IGROV1 ovarian = tested on: IGROV1 ovarian
K-562 leukemia = tested on: K-562 leukemia
KM12 colon = tested on: KM12 colon
LOX IMVI melanoma = tested on: LOX IMVI melanoma
M14 melanoma = tested on: M14 melanoma
MALME-3M melanoma = tested on: MALME-3M melanoma
MCF7 breast = tested on: MCF7 breast
MDA-MB-231 breast = tested on: MDA-MB-231 breast
MDA-MB-435 = tested on: MDA-MB-435
MOLT-4 leukemia = tested on: MOLT-4 leukemia
NCI-H226 lung = tested on: NCI-H226 lung
NCI-H23 lung = tested on: NCI-H23 lung
NCI-H460 lung = tested on: NCI-H460 lung
NCI-H522 lung = tested on: NCI-H522 lung
NCI/ADR-RES ovarian = tested on: NCI/ADR-RES ovarian
OVCAR-3 ovarian = tested on: OVCAR-3 ovarian
OVCAR-4 ovarian = tested on: OVCAR-4 ovarian
OVCAR-5 ovarian = tested on: OVCAR-5 ovarian
OVCAR-8 ovarian = tested on: OVCAR-8 ovarian
PC-3 prostate = tested on: PC-3 prostate
RPMI-8226 leukemia = tested on: RPMI-8226 leukemia
RXF 393 renal = tested on: RXF 393 renal
SF-268 CNS = tested on: SF-268 CNS
SF-295 CNS = tested on: SF-295 CNS
SF-539 CNS = tested on: SF-539 CNS
SK-MEL-2 melanoma = tested on: SK-MEL-2 melanoma
SK-MEL-28 melanoma = tested on: SK-MEL-28 melanoma
SK-MEL-5 melanoma = tested on: SK-MEL-5 melanoma
SK-OV-3 ovarian = tested on: SK-OV-3 ovarian
SN12C renal = tested on: SN12C renal
SNB-19 CNS = tested on: SNB-19 CNS
SNB-75 CNS = tested on: SNB-75 CNS
SR leukemia = tested on: SR leukemia
SW-620 colon = tested on: SW-620 colon
T-47D breast = tested on: T-47D breast
TK-10 renal = tested on: TK-10 renal
U251 CNS = tested on: U251 CNS
UACC-257 melanoma = tested on: UACC-257 melanoma
UACC-62 melanoma = tested on: UACC-62 melanoma
UO-31 renal = tested on: UO-31 renal

With `NOCC(=O)O` the GI50 (786-0 renal) was over 100 µM, the TGI (786-0 renal) was over 100 µM and the GI50 (A498 renal) was over 100 µM. The TGI (A498 renal) was over 100 µM, the GI50 (A549 NSCLC) was 49.5 µM and the TGI (A549 NSCLC) was over 100 µM. It also gave a GI50 (ACHN renal) of over 100 µM, a TGI (ACHN renal) of over 100 µM and a GI50 (BT-549 breast) of over 100 µM. For the same molecule, the TGI (BT-549 breast) was over 100 µM, the GI50 (CAKI-1 renal) was over 100 µM and the TGI (CAKI-1 renal) was over 100 µM. The GI50 (CCRF-CEM leukemia) was 94 µM, the TGI (CCRF-CEM leukemia) was over 100 µM and the GI50 (COLO 205 colon) was over 100 µM. It also gave a TGI (COLO 205 colon) of over 100 µM, a GI50 (DU-145 prostate) of over 100 µM and a TGI (DU-145 prostate) of over 100 µM. The GI50 (EKVX NSCLC) was over 100 µM, the TGI (EKVX NSCLC) was over 100 µM and the GI50 (HCC-2998 colon) was over 100 µM. It also gave a TGI (HCC-2998 colon) of over 100 µM, a GI50 (HCT-116 colon) of 66.8 µM and a TGI (HCT-116 colon) of over 100 µM. It also gave a GI50 (HCT-15 colon) of over 100 µM, a TGI (HCT-15 colon) of over 100 µM and a GI50 (HL-60(TB) leukemia) of 32.2 µM. For the same molecule, the TGI (HL-60(TB) leukemia) was over 100 µM, the GI50 (HOP-62 NSCLC) was over 100 µM and the TGI (HOP-62 NSCLC) was over 100 µM. It also gave a GI50 (HS 578T breast) of 71.1 µM, a TGI (HS 578T breast) of over 100 µM and a GI50 (HT29 colon) of 58.7 µM. It also gave a TGI (HT29 colon) of over 100 µM, a GI50 (IGROV1 ovarian) of over 100 µM and a TGI (IGROV1 ovarian) of over 100 µM. For the same molecule, the GI50 (K-562 leukemia) was over 100 µM, the TGI (K-562 leukemia) was over 100 µM and the GI50 (KM12 colon) was over 100 µM. For the same molecule, the TGI (KM12 colon) was over 100 µM, the GI50 (LOX IMVI melanoma) was over 100 µM and the TGI (LOX IMVI melanoma) was over 100 µM. The GI50 (M14 melanoma) was 82.8 µM, the TGI (M14 melanoma) was over 100 µM and the GI50 (MALME-3M melanoma) was over 100 µM. For the same molecule, the TGI (MALME-3M melanoma) was over 100 µM, the GI50 (MCF7 breast) was over 100 µM and the TGI (MCF7 breast) was over 100 µM. It also gave a GI50 (MDA-MB-231 breast) of 53.2 µM, a TGI (MDA-MB-231 breast) of over 100 µM and a GI50 (MDA-MB-435) of over 100 µM. The TGI (MDA-MB-435) was over 100 µM, the GI50 (MOLT-4 leukemia) was over 100 µM and the TGI (MOLT-4 leukemia) was over 100 µM. For the same molecule, the GI50 (NCI-H226 lung) was over 100 µM, the TGI (NCI-H226 lung) was over 100 µM and the GI50 (NCI-H23 lung) was over 100 µM. The TGI (NCI-H23 lung) was over 100 µM, the GI50 (NCI-H460 lung) was over 100 µM and the TGI (NCI-H460 lung) was over 100 µM. For the same molecule, the GI50 (NCI-H522 lung) was 25.9 µM, the TGI (NCI-H522 lung) was over 100 µM and the GI50 (NCI/ADR-RES ovarian) was over 100 µM. The TGI (NCI/ADR-RES ovarian) was over 100 µM, the GI50 (OVCAR-3 ovarian) was over 100 µM and the TGI (OVCAR-3 ovarian) was over 100 µM. The GI50 (OVCAR-4 ovarian) was over 100 µM, the TGI (OVCAR-4 ovarian) was over 100 µM and the GI50 (OVCAR-5 ovarian) was over 100 µM. The TGI (OVCAR-5 ovarian) was over 100 µM, the GI50 (OVCAR-8 ovarian) was over 100 µM and the TGI (OVCAR-8 ovarian) was over 100 µM. The GI50 (PC-3 prostate) was over 100 µM, the TGI (PC-3 prostate) was over 100 µM and the GI50 (RPMI-8226 leukemia) was 58 µM. It also gave a TGI (RPMI-8226 leukemia) of over 100 µM, a GI50 (RXF 393 renal) of over 100 µM and a TGI (RXF 393 renal) of over 100 µM. For the same molecule, the GI50 (SF-268 CNS) was over 100 µM, the TGI (SF-268 CNS) was over 100 µM and the GI50 (SF-295 CNS) was over 100 µM. The TGI (SF-295 CNS) was over 100 µM, the GI50 (SF-539 CNS) was over 100 µM and the TGI (SF-539 CNS) was over 100 µM. The GI50 (SK-MEL-2 melanoma) was over 100 µM, the TGI (SK-MEL-2 melanoma) was over 100 µM and the GI50 (SK-MEL-28 melanoma) was over 100 µM. It also gave a TGI (SK-MEL-28 melanoma) of over 100 µM, a GI50 (SK-MEL-5 melanoma) of over 100 µM and a TGI (SK-MEL-5 melanoma) of over 100 µM. It also gave a GI50 (SK-OV-3 ovarian) of over 100 µM, a TGI (SK-OV-3 ovarian) of over 100 µM and a GI50 (SN12C renal) of over 100 µM. It also gave a TGI (SN12C renal) of over 100 µM, a GI50 (SNB-19 CNS) of over 100 µM and a TGI (SNB-19 CNS) of over 100 µM. It also gave a GI50 (SNB-75 CNS) of over 100 µM, a TGI (SNB-75 CNS) of over 100 µM and a GI50 (SR leukemia) of over 100 µM. For the same molecule, the TGI (SR leukemia) was over 100 µM, the GI50 (SW-620 colon) was over 100 µM and the TGI (SW-620 colon) was over 100 µM. It also gave a GI50 (T-47D breast) of over 100 µM, a TGI (T-47D breast) of over 100 µM and a GI50 (TK-10 renal) of over 100 µM. For the same molecule, the TGI (TK-10 renal) was over 100 µM, the GI50 (U251 CNS) was over 100 µM and the TGI (U251 CNS) was over 100 µM. The GI50 (UACC-257 melanoma) was over 100 µM, the TGI (UACC-257 melanoma) was over 100 µM and the GI50 (UACC-62 melanoma) was 34.4 µM. The TGI (UACC-62 melanoma) was over 100 µM, the GI50 (UO-31 renal) was over 100 µM and the TGI (UO-31 renal) was over 100 µM.
